Data: ChEMBL document CHEMBL2321756, “From a cytotoxic agent to the discovery of a novel antimalarial agent” (Bioorg Med Chem Lett, 2013)

What was measured:
[1] = Apparent permeability across apical to basolateral side in human Caco2/TC7 cells after 2 hrs; format: ADME, cell-based; settings: Caco-2
[2] = Metabolic stability in human Caco2/TC7 cells at 50 uM up to 2 hrs; format: ADME, cell-based; settings: caco-2, 2 h
[3] = Apparent permeability across apical to basolateral side in human Caco2/TC7 cells at 50 uM after 2 hrs; format: ADME, cell-based; settings: Caco-2
[4] = test system: Erythrocyte; assay: Reduction of glutathione level in Wistar rat RBC at 25 ug/mL measured at 120 mins relative to untreated control; format: functional; parameters: scale not given: the % may be the effect or the level left
[5] = test system: Erythrocyte; assay: Reduction of glutathione level in Wistar rat RBC at 25 ug/mL measured at 90 mins relative to untreated control; format: functional; parameters: scale not given: the % may be the effect or the level left
[6] = test system: Erythrocyte; assay: Reduction of glutathione level in Wistar rat RBC at 25 ug/mL measured at 60 mins relative to untreated control; format: functional; parameters: scale not given: the % may be the effect or the level left
[7] = test system: Erythrocyte; assay: Reduction of glutathione level in Wistar rat RBC at 25 ug/mL measured at 15 mins relative to untreated control; format: functional; parameters: scale not given: the % may be the effect or the level left
[8] = test system: Erythrocyte; assay: Reduction of glutathione level in Wistar rat RBC at 25 ug/mL measured at 30 mins relative to untreated control; format: functional; parameters: scale not given: the % may be the effect or the level left
[9] = test system: Erythrocyte; assay: Reduction of glutathione level in Wistar rat RBC at 25 ug/mL measured at 5 mins relative to untreated control; format: functional; parameters: scale not given: the % may be the effect or the level left
[10] = Drug uptake in Wistar rat RBC at 25 ug/mL up to 2 hrs; format: ADME, cell-based; settings: erythrocyte
[11] = Drug uptake in Wistar rat RBC at 25 ug/mL; format: ADME, cell-based; settings: erythrocyte
[12] = test system: Plasmodium falciparum; assay: Selectivity ratio of IC50 for Plasmodium falciparum C235 to IC50 for Plasmodium falciparum D6; format: functional
[13] = test system: Plasmodium falciparum; assay: Antimalarial activity against Plasmodium falciparum C235 containing mdr1 transporter gene assessed as growth inhibition after 72 hrs by SYBR Green 1-based fluorescence assay; format: functional, organism-based; settings: C235, MDR1, 72 h
[14] = test system: Plasmodium falciparum; assay: Antimalarial activity against Plasmodium falciparum D6 assessed as growth inhibition after 72 hrs by SYBR Green 1-based fluorescence assay; format: functional, organism-based; settings: D6, 72 h

Papp A→B at 2 h [1] [×10⁻⁶ cm/s]	Stability [2]	Papp A→B at 2 h, 50 µM [3] [×10⁻⁶ cm/s]	Drug uptake [10] [%]	Drug uptake [11] [%]	Compound	Activity [4] [%]	Activity [5] [%]	Activity [6] [%]	Activity [7] [%]	Activity [8] [%]	Activity [9] [%]	Ratio IC50 [12]	IC50 [13] [nM]	IC50 [14] [nM]
29.9	–	–	–	–	COCCc1ccc(OCC(O)CNC(C)C)cc1 (stereo not given) [METOPROLOL]	–	–	–	–	–	–	–	–	–
–	Stable	1.2	80	75	Cl.O=C1/C(=C/c2ccc(Cl)cc2)CN(C(=O)c2ccc(OCCN3CCOCC3)cc2)C/C1=C\c1ccc(Cl)cc1	10.9	7.51	8.95	12.3	12.9	12.6	3.3	1970	600
–	–	–	–	–	O[C@@H](c1cc(C(F)(F)F)nc2c(C(F)(F)F)cccc12)[C@H]1CCCCN1 [(S,R)-MEFLOQUINE]	–	–	–	–	–	–	–	50	–
